Measurements from patent US4175125A, “Method for treating methicillin resistant staphylococcus aureus” (Eli Lilly and Company, priority 1978, dated 1979).
Converted amounts (≈) assume the structure as drawn. Structures can show the parent of a compound that is named as a salt. Where two headings read alike, the source gives them in different places.

Test system: methicillin-resistant Staphylococcus aureus
Assay: Gradient plate test (MIC) against methicillin-resistant Staphylococcus aureus
Format: cell-based
Settings: for MIC: Staphylococcus aureus
Procedure: The method used is essentially that described by Bryson and Szybalski in 1952 (Science 116:45-46). The inoculum treatment method used for penicillin resistant Staphylococci was reported by Godzeski et al in Antimicrobial Agents and Chemotherapy, May, 1969, pp. 547-554.
A standard Falcon square plastic petri dish is used. A layer of agar (10 ml.) is poured into one of the square dishes, the dish tipped 5 mm. off the horizontal, and the agar layer allowed to harden in this position. This bottom layer of agar contains the antibiotic, the serum, and/or other material to be tested. The medium is Difco Penassay Agar containing 2 percent agar. We routinely used 4 ml. of human or horse serum for "serum-inactivation" testing. […] Therefore, serum is routinely added only to the bottom layer.
After the bottom, slanted layer of agar medium has hardened, the plate is placed flat and another 10 ml. of medium added and allowed to harden.
The inoculum of resistant Staphylococci, as described, is prepared by diluting the water suspension 1/50 in 0.25 percent agar in sterile water or saline. For Gram negative organisms, an overnight broth culture is diluted 1/50 in the 0.25 percent agar-water. This dilution is thoroughly shaken to evenly suspend the bacteria. To streak the plate, we use a 1 ml. pipet containing an aliquot of the final […] agar dilution. After a little practice, a smooth even stroke of inoculum can be laid down very rapidly. The trick is in the smoothness of the streak--it must be accomplished uniformly and quickly.
After 24 hours incubation at 35°-37° C. the plates are read by simply measuring the length of bacterial growth as a percentage of the entire streak distance which is then converted to the percent of antibiotic concentration in the plate.
Average values of duplicate measurements are calculated and the M.I.C.'s reported are average of 2 streaks on the plate and from 2 to 3 duplicate plates. Eight streaks can be easily placed on each plate. If sharp end points are not obtained, the middle concentration between the beginning of inhibition of the streak to the end of growth is measured. The concentration of the antibiotic under examination is varied from plate to plate in a series as follows: […]
This method of screening penicillins and cephalosporins is quite satisfactory. Control plates containing penicillin and staphcillin or prostaphlin, or other control antibiotic, are used daily for the resistant staphylococcal activity screen. The gradient plate method has shown differences between antibiotics that were not apparent by any other methods of screening. […] We believe that the gradient plate screen is more sensitive to small differences between related antibiotics than other methods and pictures of the plates can provide a permanent record. The method also lends itself readily to modification of specific purposes--e.g., cross gradients.
The compounds listed below are examples of compounds useful in the method of this invention. After the compound name there is given in parentheses, where tested, the minimum inhibitory concentrations (MIC) in micrograms per milliliter (μg/ml) for the compound in the above described gradient plate procedure test against methicillin-resistant Staphylococcus aureus, (in the absence of blood serum/in the presence of 20 percent blood serum).
and pharmaceutically acceptable salts thereof. The abbreviation "s.z." means skip zones.

[1] = in the absence of blood serum, read-out: minimum inhibitory concentration (MIC)
[2] = in the presence of 20 percent blood serum
[3] = in the presence of 20 percent blood serum, read-out: minimum inhibitory concentration (MIC)

SMILES	MIC [1] [mg/L]	minimum inhibitory concentration (MIC) [2]	MIC [3] [mg/L]	MIC (read-out: minimum inhibitory concentration (MIC), in the absence of blood serum) [mg/L]	MIC (read-out: minimum inhibitory concentration (MIC), in the presence of 20 percent blood serum) [mg/L]
Cn1nnnc1SCC1=C(C(=O)O)N2C(=O)C(NC(=O)CSc3cc(Cl)ccc3Cl)C2SC1 (centres unmarked) [3-(1'-methyl-1'H-tetrazol-5'-ylthiomethyl)-7-[2'-(2",5"-dichlorophenylthio)acetamido]-3-cephem-4-carboxylic acid, dicyclohexylamine salt]	2.3	skip zones			
Cn1nnnc1SCC1=C(C(=O)O)N2C(=O)C(NC(=O)CSc3cc(F)c(Cl)cc3Cl)C2SC1 (centres unmarked) [3-(1'-methyl-1'H-tetrazol-5'-ylthiomethyl)-7-[2'-[2",4"-dichloro-5"-fluorophenylthio)acetamido]-3-cephem-4-carboxylic acid, dicyclohexylamine salt]	1.9		> 20		
O=C(CSc1cc(Cl)ccc1Cl)NC1C(=O)N2C(C(=O)O)=C(CSc3nn[nH]n3)CSC12 (centres unmarked) [3-(1'H-tetrazol-5'-ylthiomethyl)-7-[2'-(2",5"-dichlorophenylthio)acetamido]-3-cephem-4-carboxylic acid]	6.8 (≈ 12.7 µM)		> 1		
Cc1nnc(SCC2=C(C(=O)O)N3C(=O)C(NC(=O)CSc4cc(F)c(Cl)cc4Cl)C3SC2)s1 (centres unmarked) [3-(5'-methyl-1',3',4'-thiadiazol-2'-ylthiomethyl)-7-[2'-(2",4"-dichloro-5"- fluorophenylthio)acetamido]-3-cephem-4-carboxylic acid, sodium salt]	2.3		> 20		
Cc1nnc(SCC2=C(C(=O)O)N3C(=O)C(NC(=O)CSc4cc(Cl)ccc4Cl)C3SC2)s1 (centres unmarked) [3-(5'-methyl-1',3',4'-thiadiazol-2'-ylthiomethyl)-7-[2'-(2",5"-dichlorophenylthio)acetamido]-3-cephem-4-carboxylic acid, sodium salt]	1.8		> 1		
Cc1nnc(SCC2=C(C(=O)O)N3C(=O)C(NC(=O)CSc4ccc(Cl)c(Cl)c4)C3SC2)s1 (centres unmarked) [3-(5'-methyl-1',3',4'-thiadiazol-2'-ylthiomethyl)-7-[2'-(3",4"-dichlorophenylthio)acetamido]-3-cephem-4-carboxylic acid, dicyclohexylamine salt]	1.2		> 20		
Cc1nnc(SCC2=C(C(=O)O)N3C(=O)C(NC(=O)CSc4cc(Cl)cc(Cl)c4)C3SC2)s1 (centres unmarked) [3-(5'-methyl-1',3',4'-thiadiazol-2'-ylthiomethyl)-7-[2'-(3",5"-dichlorophenylthio)acetamido]-3-cephem-4-carboxylic acid, sodium salt]	4.5		> 20		
Cn1nnnc1SCC1=C(C(=O)O)N2C(=O)C(NC(=O)CSc3cc(Cl)cc(Cl)c3)C2SC1 (centres unmarked) [3-[1'-methyl-1'H-tetrazol-5'-ylthiomethyl]-7-[2'-(3",5"-dichlorophenylthio)acetamido]-3-cephem-4-carboxylic acid, dicyclohexylamine salt]	2.2	skip zones			
COc1ccc(-c2nnc(SCC3=C(C(=O)O)N4C(=O)C(NC(=O)CSc5cc(Cl)ccc5Cl)C4SC3)o2)cc1 (centres unmarked) [3-[5'-(p-methoxyphenyl)-1',3',4'-oxadiazol-5'-ylthiomethyl]-7-[2'-(2",5"-dichlorophenylthio)acetamido]-3-cephem-4-carboxylic acid, sodium salt]	4.4				
O=C(CSc1cc(Cl)ccc1Cl)NC1C(=O)N2C(C(=O)O)=C(CSc3nnc(-c4ccc([N+](=O)[O-])cc4)o3)CSC12 (centres unmarked) [3-[5'-(p-nitrophenyl)-1',3',4'-oxadiazol-2'-ylthiomethyl]-7-[2'-(2",5"-dichlorophenylthio)actamido]-3-cephem-4-carboxylic acid, sodium salt]	3.9		> 20		
O=C(CSc1cc(Cl)ccc1Cl)NC1C(=O)N2C(C(=O)O)=C(CSc3nnc(-c4ccccc4)o3)CSC12 (centres unmarked) [3-[5'-phenyl-1',3',4'-oxadiazol-2'-ylthiomethyl]-7-[2'-(2"-5"-dichlorophenylthio)acetamido]-3-cephem-4-carboxylic acid, dicyclohexylamine salt]	0.8		> 1		
NC(=O)OCC1=C(C(=O)O)N2C(=O)C(NC(=O)CSc3cc(Cl)ccc3Cl)[C@H]2SC1 (some centres unmarked) [3-carbamyloxymethyl-7-[2'-(2",5"-dichlorophenylthio)acetamido]-3-cephem-4-carboxylic acid]	4.1 (≈ 8.33 µM)		1.7		
CSCC1=C(C(=O)[O-])N2C(=O)C(NC(=O)CSc3cc(Cl)ccc3Cl)[C@H]2SC1.[Na+] (some centres unmarked) [3-methylthiomethyl-7-[2'-(2",5"-dichlorophenylthio)acetamido]-3-cephem-4-carboxylic acid, sodium salt]				12	14.4
CC(=O)OCC1=C(C(=O)O)N2C(=O)C(NC(=O)CSc3cccc(F)c3)C2SC1 (centres unmarked) [7-[2'-(3"-fluorophenylthio)acetamido]cephalosporanic acid]	10.6 (≈ 24.1 µM)		9.3		
CC(=O)OCC1=C(C(=O)O)N2C(=O)C(NC(=O)CSc3cccc(Cl)c3)C2SC1 (centres unmarked) [7-m-Chlorophenylthioacetamidocephalosporanic acid, potassium salt]	2		5.2		
CC(=O)OCC1=C(C(=O)O)N2C(=O)C(NC(=O)CSc3cc(F)c(Cl)cc3Cl)C2SC1 (centres unmarked) [Example 4, 7(2,4-Dichloro-5-fluoro-phenylthioacetamido)cephalosporanic acid]	3 (≈ 5.89 µM)		> 20		
Cn1nnnc1SCC1=C(C(=O)O)N2C(=O)C(NC(=O)CSc3ccc(Cl)c(Cl)c3)[C@H]2SC1 (some centres unmarked) [Example 5, 7-[2-(3,4-dichlorophenylthio)acetamido]-3-(1-methyltetrazol-5-yl-thiomethyl)-3-cephem-4-carboxylic acid]	2.4 (≈ 4.38 µM)		> 20		
CNC(=O)OCC1=C(C(=O)O)N2C(=O)C(NC(=O)CSc3cc(Cl)ccc3Cl)C2SC1 (centres unmarked) [Example 7, 7(2,5-dichlorophenylmercaptoacetamido)-3-(N-methylcarbamoyloxymethyl)-Δ^3-cephalosphoranic acid]	5.5 (≈ 10.9 µM)		18.2		
